Legend:
Gram positive bacteria = settings: cited from earlier work
Gram negative bacteria = settings: cited from earlier work
rodent malaria = tested on: rodent malaria; parameters: method as in PMID 994322; settings: cited from earlier work
Plasmodium falciparum = test: P. falciparum-infected erythrocyte proliferation, SYBR green incorporation; format: cell-based; settings: infected erythrocytes, 72 hours; read-out: EC50 against P. falciparum
Excerpt: The maintenance of Plasmodium falciparum cultures and conducting of in vitro inhibitor response assays have been previously described.

NLRP3 inflammasome = tested on: NLRP3 inflammasome; parameters: method as in PMID 30183250; settings: through activity as a potassium ionophore; cited from earlier work
poultry coccidiosis = tested on: poultry coccidiosis; parameters: method as in earlier work; settings: cited from earlier work
[1] = tested on: hypoxia-inducible factor-1 transcription; parameters: method as in PMID 17256467; settings: under hypoxic conditions; cited from earlier work

Question: Which “Activity against Gram positive bacteria” value (Gram positive bacteria) does the source give for `C[C@@H]1C(=O)C[C@@H](O)CC/C=C/C=C\CC[C@H](C)OC(=O)C(O)[C@]2(O)O[C@@H](CC[C@H]2C)[C@H](C)C(=O)C[C@@H](O)CC/C=C/C=C\CC[C@H](C)OC(=O)C(O)[C@]2(O)O[C@H]1CC[C@H]2C` (stereo partly drawn) [Tartrolon A] here?
Answer: activity against Gram positive

Question: And the “Activity against Gram negative bacteria” value (Gram negative bacteria)?
Answer: not Gram negative bacteria

Question: Which “In vivo activity against rodent malaria” value (rodent malaria) does the source give for `C[C@@H]1CC[C@@H]2O[C@]13O[B-]14O[C@H]3C(=O)O[C@H]3C[C@@H](/C=C/C[C@@H](O)C(C)(C)[C@@H]5CC[C@@H](C)[C@](O5)(O1)[C@@H](O4)C(=O)O[C@H]1C[C@@H](/C=C/C[C@@H](O)C2(C)C)O[C@@H]1C)O[C@@H]3C.[Na+]` [aplasmomycin] here?
Answer: active in vivo

Question: For `C[C@H]1[C@@H](O)O[C@@H]2O[C@@]3(C)CC[C@H]4[C@H](C)CC[C@@H]1[C@@]24OO3` [DHA, dihydroartemesinin, reference compound], which EC50 (Plasmodium falciparum) is on record?
Answer: 0.02 nM

Question: For `C[C@@H]1C(=O)C[C@@H](O)CC/C=C\C=C\CC[C@H](C)OC(=O)[C@@H]2O[B-]34O[C@@H](C(=O)O[C@@H](C)CC/C=C\C=C\CC[C@H](O)CC(=O)[C@@H](C)[C@@H]5CC[C@@H](C)[C@]2(O5)O3)[C@@]2(O[C@H]1CC[C@H]2C)O4.[Na+]` [Tartrolon B], which “Activity against Gram positive bacteria” value (Gram positive bacteria) is on record?
Answer: activity against Gram positive

Question: And the “Activation of the NLRP3 inflammasome” value (NLRP3 inflammasome)?
Answer: activate the NLRP3 inflammasome

Question: And the “Activity against Gram negative bacteria” value (Gram negative bacteria)?
Answer: not Gram negative bacteria

Question: With `CC(C)[C@@H](N)C(=O)O[C@H](C)[C@@H]1C/C=C\CC[C@H](O)C(C)(C)[C@@H]2CC[C@@H](C)[C@@]3(O2)O[B-]24O[C@@H](C(=O)O1)[C@]1(O[C@@H](CC[C@H]1C)C(C)(C)[C@H](O)CCC[C@@H]1C[C@H](OC(=O)[C@@H]3O2)[C@@H](C)O1)O4.[H+]` [boromycin] as the compound, how does the “In vivo activity against poultry coccidiosis” value (poultry coccidiosis) read?
Answer: active in vivo

Question: With `C[C@@H]1C(=O)C[C@@H](O)CC/C=C/C=C\CC[C@H](C)OC(=O)[C@@H]2O[B-]34O[C@@H](C(=O)O[C@@H](C)CC/C=C\C=C\CC[C@H](O)CC(=O)[C@@H](C)[C@@H]5CC[C@](C)(O)[C@]2(O5)O3)[C@@]2(O[C@H]1CC[C@]2(C)O)O4` [Tartrolon C] as the compound, how does the “Inhibition of hypoxia-inducible factor-1 transcription” value [1] read?
Answer: inhibit hypoxia-inducible factor-1 transcription

Reference: paper PMC7274485, “A symbiotic bacterium of shipworms produces a compound with broad spectrum anti-apicomplexan activity” (PLoS Pathogens, 2020)
